Earlier results in US11059813B2, “Polymorphic forms of Dasatinib” (BIOCON LIMITED, priority 2017, dated 2021).

Experiments:
[1] = co-former alone; for thermal stability: melting points greater than 300° C.
rat = settings: in vivo, po
[2] = co-former alone

| solubility in water | SMILES | chemical stability [1] | thermal stability [1] | LD50 value (rat) [mg/kg] | hygroscopicity [2] |
| --- | --- | --- | --- | --- | --- |
|  | Nc1ncnc2nc[nH]c12 [Adenine] | chemically stable | thermally stable | 227 | non-hygroscopic |
| poor | Cc1nc(Nc2ncc(C(=O)Nc3c(C)cccc3Cl)s2)cc(N2CCN(CCO)CC2)n1 [Dasatinib, N-(2-chloro-6-methylphenyl)-2-[[6-[4-(2-hydroxyethyl)-1-piperazinyl]-2-methyl-4-pyrimidinyl]amino]-5-thiazole carboxamide] |  |  |  |  |
|  | Cc1c[nH]c(=O)[nH]c1=O [Thymine] | chemically stable | thermally stable | 3500 | non-hygroscopic |
